From patent US20130310352A1, “DEXAMETHASONE COMBINATION THERAPY” (priority 2010, published 2013)

Assays:
Format in all cases: cell-based, human
MM.1S cells [1] = assay: Apoptosis with or without IL-6 addition (positive control); details: 40 μg/ml dexamethasone, rhIL-6
Method: IL-6 is an important survival cytokine for MM (Klein B, Zhang X G, Jourdan M, et al. Interleukin-6 is the central tumor growth factor in vitro and in vivo in multiple myeloma. Eur Cytokine Netw. 1990; 1 (4):193-201; Gado K, Domjan G, Hegyesi H, Falus A. Role of INTERLEUKIN-6 in the pathogenesis of multiple myeloma. Cell Biol Int. 2000; 24 (4):195-209). […] For this purpose, different MM cell lines ARP1, MM.1S and MM.1R were cultured with or without recombinant hIL-6 (final concentration […]) and treated with or without 10 μM compound A for 2 days. As a positive control, MM.1S cells were treated with 40 μg/ml of dexamethasone with or without hIL-6 addition for the same period of time.
(§1) MM cell lines ARP1, MM.1S and MM.1R were cultured with 10 μM compound A for 3 days. rhIL-6 were added to final concentration of 5 ng/ml. As a positive control, MM.1S cells were treated with 40 μg/ml dexamethasone in the presence of 5 ng/ml of rhIL6 for the same time. Cells apoptosis rate was measured by annexin V staining. (B). Same MM cells were co-cultured with or without MM BMSC, and treated with 10 μM of compound A for 1 day. As a positive control, MM.1S cells were cocultured with or without BMSC and treated with 40 μg/ml dexamethasone for 1 day. CD138+ MM cells apoptosis rate was measured by Annexin V staining.

MM.1S cells [2] = assay: Apoptosis in coculture with BMSCs (positive control); details: 40 μg/ml dexamethasone, 24 hours, BMSC coculture
Method: For this purpose, BMSCs isolated from MM patient were cocultured with MM cell lines ARP1, MM.1S and MM.1R. The cells were treated with or without 10 μM of compound A for 24 hours. As a positive control, MM.1S cells were cocultured with or without BMSC and treated with or without 40 μg/ml of dexamethasone for 24 hours. After treatment, the MM cells were identified as CD138+ cells by APC-CD138 staining.
as §1

[3] = tested on: MM cells ARP1, MM.1S and MM.1R; assay: Low-dose single agents, apoptosis; details: 40 μg/ml dexamethasone alone, 1 day
Method: Compound A-induced cell apoptosis was detected by Annexin V binding assay as previously described (Zheng Y, Cai Z, Wang S, et al. Macrophages are an abundant component of myeloma microenvironment and protect myeloma cells from chemotherapy drug-induced apoptosis. Blood. 2009; 114 (17):3625-3628). Briefly, MM cells were cultured in 24-well plates and treated with 0 to 1 mM final concentrations of compound A for 24 or 72 hours. The cells were washed twice with cold PBS and resuspended in Annexin V binding buffer (Invitrogen). MM cells were stained with FITC-conjugated Annexin V and propidium iodide (PI) for 15 min at room temperature. Apoptotic cells were determined as Annexin V positive cells.
Next, the experiment was extended to other MM cell lines, and they were treated with low compound A (1 μM) and dexamethasone (40 μg/ml).
ARP1 cells were treated with 10 μM compound A (BK), 15 nM melphalan (Me), 40 μg/ml dexamethasone (De), 100 μM lenalidomide (Le), 10 μM Bortizomib (BT), or their combinations for 1 day. The cell apoptosis were measured as described. […] Cell apoptosis was measured. […] Same MM cell lines were treated with compound A for 1 day and cell growth were measured by MTS. […] Cell apoptosis were measured by annexin V staining. […] Cells apoptosis rates were measured by annxin V staining. […]

C[C@@H]1C[C@H]2[C@@H]3CCC4=CC(=O)C=C[C@]4(C)[C@@]3(F)[C@@H](O)C[C@]2(C)[C@@]1(O)C(=O)CO [dexamethasone, (8S,9R,10S,11S,13S,14S,16R,17R)-9-Fluoro-11,17-dihydroxy-17-(2-hydroxyacetyl)-10,13,16-trimethyl-6,7,8,9,10,11,12,13,14,15,16,17-dodecahydro-3H-cyclopenta[a]phenanthren-3-one]
effect of IL6 addition under dexamethasone treatment (MM.1S cells [1]): promoted MM.1S cells survival | effect of BMSCs on dexamethasone induced cell apoptosis (MM.1S cells [2]): protected MM.1S cells | cytotoxic effect of low dose alone [3]: only limited cytotoxic effect
